Target: T1, gamma secretase (Homo sapiens, UniProt P49768)
T1 construct: HEK293 cells stably expressing full length Amyloid Precursor Protein (APP); endogenous in cells; host or cells: HEK 293 cells stably expressing full length APP
Assay: GSM cell-based assay: Aβ 42 inhibition or reduction in HEK 293 cells over-expressing APP (sandwich ELISA)
Details: approximate IC50; HEK293 cells stably expressing full length APP, 24 hours incubation, 10-point dose response starting at 10 μM
From the text: GSM cell-based assays were designed to measure the modulation of Aβ 42 from HEK 293 cells over-expressing APP.
Three simultaneous cell-based assays, namely Aβ 42 inhibition or reduction, Aβ 40 inhibition or reduction and a measurement of cell viability of the cells from which the Aβ 42/40 readout was obtained, together gave an interpretation of gamma secretase modulation (GSM). The assays measure Aβ 42 and Ab 40 from conditioned medium of test compound treated HEK 293 cells.
HEK293 cells stably expressing full length Amyloid Precursor Protein (APP) were plated at a density of 100K cells/well in 96 well plates (Costar). The cells were cultivated for 6 hours at 37° C. and 5% CO2 in DMEM supplemented with 10% FBS. The test compounds were then added to cells in 10-point dose response concentrations with the starting concentration being 10 μM. The compounds were diluted from stock solutions in DMSO and the final DMSO concentration of the test compounds on cells was 0.1%. After 24 hours of incubation with the test compounds the supernatant conditioned media was collected and the Aβ 42, Aβ 40 levels were determined using a sandwich ELISA. A cell viability test (CellTiter-Blue Cell Viability assay, Promega) on the cells from which the conditioned medium was harvested for Aβ 42 or Aβ 40 readouts gave an indication of cell survivability as a possible reason for false positive Aβ 42 or 40 reduction or inhibition readout. The IC50 of the compound (for either Aβ 42 or Aβ 40) was calculated from the percent of control or percent inhibition of Aβ 42 or Aβ 40 as a function of the concentration of the test compound.
The sandwich ELISA to detect Aβ 42 or Aβ 40 was performed in 96 well microtiter plates, which were pre-treated with goat anti-rabbit IgG (Pierce). The capture and detecting antibody pair that were used to detect Aβ 42 and Aβ 40 from cell supernatants were rabbit monoclonal Antibody 42 (RabMAb 42) and affinity purified polyclonal Antibody 40 pAB40 (Biosource) as capture antibodies and biotinylated 6E10 (Signet Labs Inc.) as detection antibody. The optimal concentration for RabMAb 42 was 1 μg/ml in Superblock/TBS (Pierce) that was supplemented with 0.05% Tween 20 (Sigma). The optimal concentration for the pAb40 antibody was 3 μg/ml in Superblock/TBS (Pierce) that was supplemented with 0.05% Tween 20 (Sigma). Optimal concentration for the detection antibody 6E10-biotinylated was 0.5 μg/ml in Superblock/TBS (Pierce) that had been supplemented with 2% normal goat serum and 2% normal mouse serum.
Cellular supernatants were incubated with the capture antibody for 16-20 hours at 4° C., followed by 3 wash steps in TBS-tween (0.05%). The detecting antibody incubation was for 3 hours at 4° C., again followed by the wash steps as described previously. The final readout of the ELISA is Time-Resolved Fluorescence (counts per minute) using Delfia reagents Streptavidin-Europium and Enhancement solutions (Perkin Elmer) and the EnVision Multilabel plate reader (Perkin Elmer).

SMILES | IC50 [nM]
Cc1cc(-c2ccc(NC(=O)C3CCN(Cc4ccccc4)CC3)cc2)ccn1 [Cpd 312] | > 10000
Cc1cc(-c2ccc(NC(=O)c3cc4ccc(F)cc4s3)cc2)ccn1 [Cpd 314] | > 10000
Cc1cc(-c2ccc(NC(=O)c3cn4cc(Br)ccc4n3)cc2)ccn1 [Cpd 315] | 2160
Cc1cc(-c2ccc(NC(=O)Cc3cccc(C#N)c3)cc2)ccn1 [Cpd 321, 2-(3-cyanophenyl)-N-(4-(2-methyl-4-pyridinyl)phenyl)acetamide] | > 10000
Cc1cc(-c2ccc(NC(=O)C3CCCc4ccccc43)cc2)ccn1 (stereo not shown) [Cpd 322] | 2690
Cc1cc(-c2ccc(NC(=O)C3(c4ccc(Cl)cc4Cl)CC3)cc2)ccn1 [Cpd 332] | 1170
Cc1cc(-c2ccc(NC(=O)C(C)(C)c3cc(C(F)(F)F)cc(C(F)(F)F)c3)cc2)ccn1 [Cpd 336] | > 10000
Cc1cccc(C(C(=O)Nc2ccc(-c3ccnc(C)c3)cc2)C(C)C)c1 (stereo not shown) [Cpd 338, 3-methyl-2-(3-methylphenyl)-N-(4-(2-methyl-4-pyridinyl)phenyl)butanamide] | 1350
CC[C@@H](C(=O)Nc1ccc(-c2ccnc(C)c2)cc1)c1ccccc1 [Cpd 344, (2R)-N-(4-(2-methyl-4-pyridinyl)phenyl)-2-phenylbutanamide] | > 10000
CC[C@H](C(=O)Nc1ccc(-c2ccnc(C)c2)cc1)c1ccccc1 [Cpd 345, (2S)-N-(4-(2-methyl-4-pyridinyl)phenyl)-2-phenylbutanamide] | 1870
Cc1cc(-c2ccc(NC(=O)Cc3ccc(F)c(C(F)(F)F)c3)cc2)ccn1 [Cpd 351, 2-(4-fluoro-3-(trifluoromethyl)phenyl)-N-(4-(2-methyl-4-pyridinyl)phenyl)acetamide] | 2390
CCCC(C(=O)Nc1ccc(-c2ccnc(C)c2)cc1)c1ccccc1 (stereo not shown) [Cpd 368, N-(4-(2-methyl-4-pyridinyl)phenyl)-2-phenylpentanamide] | 2650
Cc1cc(-c2ccc(NC(=O)c3cccc(-c4ccccc4)c3)cc2)ccn1 [Cpd 386] | 874
Cc1cc(-c2ccc(NC(=O)C(C)n3ccc4ccccc43)cc2)ccn1 (stereo not shown) [Cpd 414, 2-(1H-indol-1-yl)-N-(4-(2-methyl-4-pyridinyl)phenyl)propanamide] | 1020
Cc1cc(-c2ccc(NC(=O)C(C)c3ccc(N)cc3)cc2)ccn1 (stereo not shown) [Cpd 419, 2-(4-aminophenyl)-N-(4-(2-methyl-4-pyridinyl)phenyl)propanamide] | > 10000
Cc1cc(-c2ccc(NC(=O)C(C)c3cccc(C4=CCNCC4)c3)cc2)ccn1 (stereo not shown) [Cpd 425, N-(4-(2-methyl-4-pyridinyl)phenyl)-2-(3-(1,2,3,6-tetrahydro-4-pyridinyl)phenyl)-propanamide] | > 10000
Cc1cc(-c2ccc(NC(=O)C(C)c3cc(N4CCOCC4)cc(C(F)(F)F)c3)cc2)ccn1 (stereo not shown) [Cpd 441, N-(4-(2-methyl-4-pyridinyl)phenyl)-2-(3-(4-morpholinyl)-5-(trifluoromethyl)phenyl)-propanamide] | 1840
Cc1cc(-c2ccc(NC(=O)C(C)c3cccc(-c4ccc(S(C)(=O)=O)cc4)c3)cc2)ccn1 (stereo not shown) [Cpd 442, N-(4-(2-methyl-4-pyridinyl)phenyl)-2-(4′-(methylsulfonyl)-3-biphenylyl)propanamide] | 628
Cc1cc(-c2ccc(NC(=O)C(C)c3ccc(NC(C)C)cc3)cc2)ccn1 (stereo not shown) [Cpd 443] | 302
Cc1cc(-c2ccc(NC(=O)C(C)c3cccc(-c4ccc(OC(F)(F)F)cc4)c3)cc2)ccn1 (stereo not shown) [Cpd 453, N-(4-(2-methyl-4-pyridinyl)phenyl)-2-(4′-(trifluoromethoxy)-3-biphenylyl)-propanamide] | 1420
COc1cc(NC(=O)C(C)c2cc(F)cc(C(F)(F)F)c2)ccc1-c1ccnc(C)c1 (stereo not shown) [Cpd 454, 2-(3-fluoro-5-(trifluoromethyl)phenyl)-N-(3-methoxy-4-(2-methyl-4-pyridinyl)-phenyl)propanamide] | 806
Cc1cc(-c2ccc(NC(=O)C(C)n3cc(-c4ccccc4)c(C)n3)cc2)ccn1 (stereo not shown) [Cpd 455, 2-(3-methyl-4-phenyl-1H-pyrazol-1-yl)-N-(4-(2-methyl-4-pyridinyl)phenyl)-propanamide] | 908
Cc1cc(-c2ccc(NC(=O)C(C)c3cccc(Br)c3)cc2C#N)ccn1 (stereo not shown) [Cpd 460, 2-(3-bromophenyl)-N-(3-cyano-4-(2-methyl-4-pyridinyl)phenyl)propanamide] | 5760
COc1cc(NC(=O)[C@H](C)c2cccc(Br)c2)ccc1-c1ccnc(C)c1 [Cpd 461, (2R)-2-(3-bromophenyl)-N-(3-methoxy-4-(2-methyl-4-pyridinyl)phenyl)propanamide] | 911
Cc1cc(-c2ccc(NC(=O)C(C)c3ccc(N(C)C(C)C)cc3)cc2)ccn1 (stereo not shown) [Cpd 481, 2-(4-(methyl(1-methylethyl)amino)phenyl)-N-(4-(2-methyl-4-pyridinyl)phenyl)-propanamide] | 2130
Cc1cc(-c2ccc(NC(=O)C(C)c3ccc4c(c3)CCN4)cc2)ccn1 (stereo not shown) [Cpd 497, 2-(2,3-dihydro-1H-indol-5-yl)-N-(4-(2-methyl-4-pyridinyl)phenyl)propanamide] | > 10000

The remaining lines, values ahead:

IC50 [nM] | SMILES
> 10000 | COc1ncc(-c2cccc([C@@H](C)C(=O)Nc3ccc(-c4ccnc(C)c4)cc3)c2)cn1 [Cpd 502, (2R)-2-(3-(2-methoxy-5-pyrimidinyl)-phenyl)-N-(4-(2-methyl-4-pyridinyl)-phenyl)propanamide]
320 | CC(=O)N1CCN(c2ccc(-c3cccc([C@@H](C)C(=O)Nc4ccc(-c5ccnc(C)c5)cc4)c3)cc2)CC1 [Cpd 522]
1200 | Cc1cc(-c2ccc(NC(=O)C(C)c3cccc(C4CC4)c3)cc2)ccn1 (stereo not shown) [Cpd 524, 2-(3-cyclopropylphenyl)-N-(4-(2-methyl-4-pyridinyl)phenyl)propanamide]
310 | CCN(Cc1cc(OC)c(OC)c(OC)c1)c1ccc(C(C)C(=O)Nc2ccc(-c3ccnc(C)c3)cc2)cc1 (stereo not shown) [Cpd 526, 2-(4-(ethyl(3,4,5-trimethoxybenzyl)amino)-phenyl)-N-(4-(2-methyl-4-pyridinyl)-phenyl)propanamide]
> 10000 | Cc1cc(-c2ccc(NC(=O)CC3CCCC3)cc2)ccn1 [Cpd 558, 2-cyclopentyl-N-(4-(2-methyl-4-pyridinyl)-phenyl)acetamide]
> 10000 | COc1cc(C(C)C(=O)Nc2ccc(-c3ccnc(C)c3)cc2)ccc1N (stereo not shown) [Cpd 574, 2-(4-amino-3-methoxyphenyl)-N-(4-(2-methyl-4-pyridinyl)phenyl)propanamide]
1520 | COc1cc(C(C)C(=O)Nc2ccc(-c3ccnc(C)c3)cc2)ccc1NC(C)C (stereo not shown) [Cpd 575, 2-(3-methoxy-4-((1-methylethyl)amino)-phenyl)-N-(4-(2-methyl-4-pyridinyl)-phenyl)propanamide]
616 | Cc1cc(-c2ccc(NC(=O)C(C)c3ccc(N4CCCCC4)nc3)cc2)ccn1 (stereo not shown) [Cpd 580, N-(4-(2-methyl-4-pyridinyl)phenyl)-2-(6-(1-piperidinyl)-3-pyridinyl)propanamide]
4610 | Cc1cc(-c2ccc(NC(=O)Cc3ccc4oc(-c5cccnc5)nc4c3)cc2)ccn1 [Cpd 583, N-(4-(2-methyl-4-pyridinyl)phenyl)-2-(2-(3-pyridinyl)-1,3-benzoxazol-5-yl)-acetamide]
> 10000 | Cc1cc(-c2ccc(NC(=O)Cc3ccc4oc(-c5ccncc5)nc4c3)cc2)ccn1 [Cpd 584, N-(4-(2-methyl-4-pyridinyl)phenyl)-2-(2-(4-pyridinyl)-1,3-benzoxazol-5-yl)-acetamide]
> 3330 | Cc1cc(-c2ccc(NC(=O)c3ccc(CN4CCOCC4)cc3)cc2)ccn1 [Cpd 625]
> 10000 | Cc1cc(C(C)C(=O)Nc2ccc(-c3ccnc(C)c3)cc2)cc(N2CCC(F)(F)CC2)c1 (stereo not shown) [Cpd 637, 2-(3-(4,4-difluoro-1-piperidinyl)-5-methyl-phenyl)-N-(4-(2-methyl-4-pyridinyl)-phenyl)propanamide]
> 10000 | Cc1cc(-c2ccc(NC(=O)[C@H](C)c3cccc(-c4ccc(C(=O)O)cc4)c3)cc2)ccn1 [Cpd 639]
5100 | Cc1cc(-c2ccc(NC(=O)c3ccc4[nH]c5c(c4c3)CSCC5)cc2)ccn1 [Cpd 662]
